Laboratory results from US12022830B2, “Formulations of metal and ascorbic acid complexes, their obtaining and use” (INTERMAG SP. Z O.O., priority 2017, dated 2024).

What was measured:
corn borer moth = test: Infestation of corn by corn borer moth; type: in vivo; conditions: foliar, 32.6 g TiO(Asc)2.2H2O/ha, three dates
[1] = tested on: Iceberg cabbage lettuce (Lactuca sativa) of Rubette type; test: Titanyl ascorbates in cultivation of iceberg lettuce, head mass, chlorophyll, flavonoids; type: in vivo; conditions: foliar twice, 0.00085% Ti, total 3.4 g Ti/ha
Protocol: Iceberg cabbage lettuce (Lactuca sativa) of Rubette type was cultivated in a plastic tunnel in pots with a capacity of 3 l filled with a peat substrate. […] In two applications, the total titanium dose per hectare was 3.4 g Ti/ha. The experiment was performed in a random block system, combinations were drawn in 4 blocks. […] Flavonoids are antioxidant compounds, they protect plant cell structures against reactive oxygen species formed under the influence of abiotic and biotic stress factors. These compounds are the first to be synthesised when unfavourable conditions of the growing environment occur.

Cladosporium herbarum = test: Infestation of wheat spikes by Cladosporium herbarum; type: in vivo; conditions: sprayed plants, control 20%
Text: (§1) In the case of diseases attacking spikes, on the control combination, infestation by Cladosporium herbarum at 20%, by Septoria nodorum at 10% and by Gibberella avenacea at 10% were found. On sprayed plants, infestations were 1%, 1% and 0% respectively.

[2] = tested on: fusarium foot and root rot; test: Fusarium foot and root rot on wheat; type: in vivo; conditions: sprayed plants; control 12% of infestations
cereal leaf beetle = test: Infestation of wheat by cereal leaf beetle; type: in vivo; conditions: foliar, 32.6 g TiO(Asc)2.2H2O/ha, three dates
corn of Wilga type = conditions: foliar, 32.6 g TiO(Asc)2.2H2O/ha, BBCH 12-14, 18-20, 35-39
Protocol: (§2) The experiments on the effect of the formulations according to the invention (liquid preparation obtained after dissolving the solid blend, according to the invention) were performed on winter oilseed rape, winter wheat and corn plants at the Institute of Plant Protection in Poznan at the Experimental Station in Winna Góra.

Botrytis cinerea = conditions: foliar, 32.6 g TiO(Asc)2.2H2O/ha, three dates
Protocol: as §2

Alternaria brassicae = conditions: foliar, 32.6 g TiO(Asc)2.2H2O/ha, three dates
Protocol: as §2

[3] = tested on: winter oilseed rape of Artoga type; conditions: foliar, 32.6 g TiO(Asc)2.2H2O/ha, BBCH 21-36, 50-61, 69-73
Protocol: as §2

wheat of Figura type = conditions: foliar, 32.6 g TiO(Asc)2.2H2O/ha, BBCH 22-29, 30-51, 51-73
Protocol: as §2

cabbage seed weevil = conditions: foliar, 32.6 g TiO(Asc)2.2H2O/ha, three dates
Protocol: as §2

wheat = test: Cultivation of wheat, chlorophyll content and uptake of nutrients; type: in vivo; conditions: for Content of chlorophyll in leaves: 20th day of the experiment; for Fe content / K content / P content / Ti content / Zn content: aboveground parts, dry mass, 20th day
Protocol: Experiments for the use of titanium complex in the solid formulation TiO(Asc)2.2H2O on wheat were performed analogously to Example 14.
(§3) The content of nutrients was tested in the aboveground parts of plants, based on dry mass content.

butterhead lettuce = test: Cultivation of butterhead lettuce, uptake of nutrients; type: in vivo; conditions: aboveground parts, dry mass, 20th day, two sprays, 0.0085% Ti
Protocol: TiO(OH)(C6H7O6).1H2O was used in the amount of 9.7 g/ha (0.005%, 0.0085% Ti), (TiO(C6H7O6)2.2H2O) was used in the amount of 16.3 g/ha (0.008%, 0.0085% Ti), TiO(C6H7O6)3.3H2O was used in the amount of 22.9 g/ha (0.011%, 0.0085% Ti), TiO(C6H7O6)4.5H2O was used in the amount of 30.9 g/ha (0.015%, 0.0085% Ti) in a single spray after previously dissolving them in 200 l of water. The spraying was performed with a manual sprayer at the smallest possible drop setting. Plants were sprayed evenly from a distance of about 30 cm.
Substrate: a mixture of peat deacidified with chalk (producer: Hollas) and rinsed quartz sand with a granulation of 4-8 mm. Volume ratio of the mixture: 1:4. Agrofoska (Intermag) fertiliser in the amount of 3 kg/m^3 was added to the substrate. Pots with a volume of about 3 l were used.
Spraying was performed twice with the preparation with the same concentrations of working liquid: spray 1 on the 7th day of the experiment; spray 2 on the 14th day of the experiment.
The experiment was randomised and there were 10 repetitions for each combination (1 repetition=one pot)
as §3

[4] = Study of solution stability for a given complex; type: physicochemical
Gibberella avenacea = test: Infestation of wheat spikes by Gibberella avenacea; type: in vivo; conditions: sprayed plants, control 10%
Text: as §1

Septoria nodorum = test: Infestation of wheat spikes by Septoria nodorum; type: in vivo; conditions: sprayed plants, control 10%
Text: as §1

fragility of stem base = test: Infestation of wheat through the fragility of stem base; type: in vivo; conditions: treated plants; control 48% infested plants
rape = test: Cultivation of rape, vegetative mass and uptake of nutrients; type: in vivo; conditions: for Number of plant leaves / Total wet mass of the aboveground part / Wet mass of leaves / Wet mass of stem: 20th day of the experiment; for Fe content / Mg content / Mn content / P content / Si content / Ti content / Zn content: aboveground parts, dry mass, 20th day
Protocol: Experiments for the use of titanium complex for rape were performed analogously to Example 14.
as §3

[5] = 5% solution obtained by dissolving in water

Compound: O.O.O=C1OC(C(O)CO)C([O-])=C1O.O=C1OC(C(O)CO)C([O-])=C1O.[O]=[Ti+2] (stereo not drawn) [TiO(C6H7O6)2•2H2O, titanyl ascorbate]
- decrease in the infestation by corn borer moth in comparison to untreated plants (corn borer moth): 43%
- Chlorophyll [1]: 27.4 μg/cm^2
- Dry mass [1]: 7.23 g
- Flavonoids [1]: 0.32 μg/cm^2
- Mass of head [1]: 82.8 g
- infestation by Cladosporium herbarum (Cladosporium herbarum): 1%
- symptoms of fusarium foot and root rot [2]: not any symptoms
- decrease in the infestation by cereal leaf beetle in comparison to untreated plants (cereal leaf beetle): 74%
- Corn yield increased compared to the control combination (corn of Wilga type): 13 % (m/m)
- Infestation of siliques by Botrytis cinerea smaller than the control combination (Botrytis cinerea): 77%
- Infestation of siliques by Alternaria brassicae smaller than the control combination (Alternaria brassicae): 52%
- Rape yield increased compared to the control combination [3]: 15%
- Wheat yield increased compared to the control combination (wheat of Figura type): 16 % (m/m)
- Siliques damaged by cabbage seed weevil fewer than in the control combination (cabbage seed weevil): 80%
- Content of chlorophyll in leaves (wheat): 48.03 SPAD
- Fe content (wheat): 85.056 mg/kg
- K content (wheat): 55.27 g/kg
- P content (wheat): 10.43 g/kg
- Ti content (wheat): 1.390 mg/kg
- Zn content (wheat): 48.850 mg/kg
- B content (butterhead lettuce): 83.31 mg/kg
- Ca content (butterhead lettuce): 17.41 g/kg
- Cu content (butterhead lettuce): 7.13 mg/kg
- Fe content (butterhead lettuce): 794.44 mg/kg
- K content (butterhead lettuce): 7.48 g/kg
- Mg content (butterhead lettuce): 6.66 g/kg
- Mn content (butterhead lettuce): 687.51 mg/kg
- S content (butterhead lettuce): 7.41 g/kg
- Ti content (butterhead lettuce): 4.27 mg/kg
- Zn content (butterhead lettuce): 154.18 mg/kg
- stable during long storage [4, 5]: up to 12 months
- temperature at which the solution remains stable [4, 5]: −5 to +40 °C
- behaviour after freezing and thawing ([4]; 5% solution, overcooled below −7° C., then raised above 0° C.): retains its original physicochemical properties
- stability of the solution among the complexes ([4]; complexes in the form of solutions): most stable
- infestation by Gibberella avenacea (Gibberella avenacea): 0%
- infestation by Septoria nodorum (Septoria nodorum): 1%
- infestation through the fragility of stem base (fragility of stem base): 4%

Compound: O.O=C1OC(C(O)CO)C([O-])=C1O.[OH-].[O]=[Ti+2] (stereo not drawn) [TiO(OH)(C6H7O6)•1H2O, titanyl ascorbate]
- Content of chlorophyll in leaves (wheat): 47.17 SPAD
- Fe content (wheat): 96.280 mg/kg
- K content (wheat): 57.21 g/kg
- P content (wheat): 9.86 g/kg
- Ti content (wheat): 1.444 mg/kg
- Zn content (wheat): 47.880 mg/kg
- Number of plant leaves (rape): 8.28
- Total wet mass of the aboveground part (rape): 38.3
- Wet mass of leaves (rape): 19.00 g
- Wet mass of stem (rape): 21.53 g
- Fe content (rape): 1957.19 mg/kg
- Mg content (rape): 8.859 g/kg
- Mn content (rape): 1350.53 mg/kg
- P content (rape): 8.74 g/kg
- Si content (rape): 118.21 mg/kg
- Ti content (rape): 1.55 mg/kg
- Zn content (rape): 362.63 mg/kg

Compound: titanyl ascorbate [TiO(C6H7O6)3•3H2O]
- Content of chlorophyll in leaves (wheat): 45.60 SPAD
- Fe content (wheat): 97.390 mg/kg
- K content (wheat): 57.22 g/kg
- P content (wheat): 9.47 g/kg
- Ti content (wheat): 1.311 mg/kg
- Zn content (wheat): 51.410 mg/kg
- B content (butterhead lettuce): 72.35 mg/kg
- Ca content (butterhead lettuce): 17.84 g/kg
- Cu content (butterhead lettuce): 5.46 mg/kg
- Fe content (butterhead lettuce): 842.63 mg/kg
- K content (butterhead lettuce): 6.97 g/kg
- Mg content (butterhead lettuce): 6.03 g/kg
- Mn content (butterhead lettuce): 757.37 mg/kg
- Si content (butterhead lettuce): 257.62 mg/kg
- Ti content (butterhead lettuce): 2.37 mg/kg
- Zn content (butterhead lettuce): 155.38 mg/kg
- Number of plant leaves (rape): 7.94
- Total wet mass of the aboveground part (rape): 39.61
- Wet mass of leaves (rape): 17.74 g
- Wet mass of stem (rape): 21.58 g
- Fe content (rape): 1739.07 mg/kg
- Mg content (rape): 7.86 g/kg
- Mn content (rape): 1440.47 mg/kg
- P content (rape): 11.43 g/kg
- Si content (rape): 159.40 mg/kg
- Ti content (rape): 1.07 mg/kg
- Zn content (rape): 413.68 mg/kg

Compound: titanyl ascorbate [TiO(C6H7O6)4•5H2O]
- Content of chlorophyll in leaves (wheat): 47.06 SPAD
- Fe content (wheat): 100.910 mg/kg
- K content (wheat): 53.29 g/kg
- P content (wheat): 10.09 g/kg
- Ti content (wheat): 1.150 mg/kg
- Zn content (wheat): 44.290 mg/kg
